Several values for one entry are separate records, joined by “and”; a condition that tells them apart may be missing. Equal values may be shown once. Read-outs that look alike come from different tables or passages of the source.
Key:
Assay type in all cases: physicochemical
[1] = Separation of Nd/Pr/Tb/Dy mixture by precipitation using L5 and α-HIBA (Example 23)
Description: These aqueous reaction mixtures, each prepared to a total volume of 1.5 mL with the addition of water as necessary, were mixed by the use of a PTFE-coated stir bar on a magnetic stirrer. The cuvettes were sealed with transparent tape to prevent evaporation overnight. […] The supernatants were carefully pipetted out and transferred to a new set of tubes. […] The absolute concentration of the four metals in each supernatant and precipitate was determined by ICP-OES.

[2] = Separation of Pr from L5 by C18 column (Example 28)
Description: Stock solutions were pipetted into a 20 mL glass vial to prepare a reaction mixture as follows: • 1. 1.00 mL 100 mM aqueous solution of PrCl3 • 2. 0.60 mL 218 mM aqueous solution of L5
NaOH (2 M aqueous stock solution) was added by micropipette to titrate the reaction pH to 6. This reaction was stirred by the use of a PTFE-coated stir bar on a magnetic stirrer at room temperature for 30 minutes. The resulting suspension was transferred into two 2 mL plastic Eppendorf centrifuge tubes and centrifuged. The supernatant was set aside and analysed by HPLC, and the precipitate was dissolved by addition of 0.15 mL 1 M HCl to each Eppendorf tube. These dissolved solutions were combined and titrated to pH 2 by addition of 2 M NaOH.
The L5 and Pr present in the acidic solution were separated by reverse-phase chromatography, using 1.01 g fully-endcapped C18 silica gel in a plastic SPE cartridge (2 cm diameter). After conditioning the reversed phase with MeCN and MeCN/H20 solutions, 1 mL of H2O was run through the column before loading the L5-Pr solution onto the column. MeCN/H20 solutions were used to elute the components from the column: 2 mL 0% MeCN, 4 mL 10% MeCN, 4 mL 25% MeCN, and 4 mL 50% MeCN. The eluted solutions were collected as seven 2 mL fractions. All fractions were analysed by HPLC-MS to determine L5 content. The first two fractions were also analysed by ICP-OES to determine Pr content.
The distribution of L5 and Pr in the fractions is shown in Table 21, where the quantity of each component present in each fraction is provided as a fraction of the total quantity of the component found in the sum of the fractions, as well as the measured content of Pr (in mM) and L5 (as the integrations of the chromatographic peak areas at 280 nm) found in each fraction.

[3] = Separation of Eu/Yb mixture by precipitation using L5 (Example 15); conditions: for Precipitate concentration [mM] Eu / Precipitate concentration [mM] Yb: dissolved to 150 μL
Description: Stock solutions were pipetted into round-bottom 2 mL Eppendorf tubes as follows: • 1. 15 μL 100 mM aqueous solution of EuCl3 • 2. 10 μL 100 mM aqueous solution of YbCl3 • 3. 30 μL 100 mM aqueous solution of compound L5. • 4. 90 μL 0.5 M MOPS buffer pH=7.
Three identical reaction mixtures were prepared. Each tube was equipped with one PTFE-coated magnetic stir bar and sealed, and the mixture was stirred on a magnetic stirrer for 24 hours at room temperature. The tubes were then centrifuged and the supernatants were carefully pipetted out and transferred to a new set of tubes. To the precipitate was added 100 μL 1 M HCl (reaching pH=0) and the mixture was stirred until full dissolution (overnight at room temperature, pH=0). The overall volume of the solution was adjusted to 150 μL volume by addition of water. The supernatants were treated with 1 M HCl for a total volume of 150 μL and pH=0.5. Concentrations of Eu and Yb in the supernatants and in the re-dissolved precipitates were determined by ICP-OES. The resulting absolute concentrations of both metals in the supernatants and precipitates, as well as calculated values of the separation factor Yb/Eu according to formula from Example 11), are summarized in Table 9. […] The average separation factor value was 152.

[4] = L5 + α-HIBA, MOPS pH=7, 18 hours, individual samples A, B, C
[5] = L5 + α-HIBA, MOPS pH=7, 18 hours, precipitate dissolved to 500 μL, individual samples A, B, C

O=C(O)CN1CCN(CC(=O)O)CCN(Cc2cccc3ccccc23)CCN(CC(=O)O)CC1 [L5, 2,2′,2″-(10-(naphthalene-1-ylmethyl)-1,4,7,10-tetraazacyklododekane-1,4,7-triyl)triacetic acid]
supernatant concentration Dy [1, 4]: 1.73 and 1.38 and 1.65 | supernatant concentration Nd [1, 4]: 1.31 and 0.78 and 0.98 | supernatant concentration Pr [1, 4]: 0.32 and 0.20 and 0.24 | supernatant concentration Tb [1, 4]: 1.22 and 1.00 and 1.17 | precipitate concentration Dy [1, 5]: 1.04 and 0.95 and 1.05 | precipitate concentration Nd [1, 5]: 8.60 and 7.83 and 8.96 | precipitate concentration Pr [1, 5]: 2.30 and 2.08 and 2.40 | precipitate concentration Tb [1, 5]: 1.25 mM (2×) and 1.11 mM | precipitate concentration Dy, average ([1]; average of samples A-C): 1.01 | precipitate concentration Nd, average ([1]; average of samples A-C): 8.46 | precipitate concentration Pr, average ([1]; average of samples A-C): 2.26 | precipitate concentration Tb, average ([1]; average of samples A-C): 1.20 | supernatant concentration Dy, average ([1]; average of samples A-C): 1.59 | supernatant concentration Nd, average ([1]; average of samples A-C): 1.03 | supernatant concentration Pr, average ([1]; average of samples A-C): 0.25 | supernatant concentration Tb, average ([1]; average of samples A-C): 1.13 | % comp of precipitate, Dy ([1]; percent composition of phase): 7.8% | % comp of precipitate, Nd ([1]; percent composition of phase): 65.4% | % comp of precipitate, Pr ([1]; percent composition of phase): 17.5% | % comp of precipitate, Tb ([1]; percent composition of phase): 9.3% | % comp of supernatant, Dy ([1]; percent composition of phase): 39.7% | % comp of supernatant, Nd ([1]; percent composition of phase): 25.7% | % comp of supernatant, Pr ([1]; percent composition of phase): 6.3% | % comp of supernatant, Tb ([1]; percent composition of phase): 28.3% | % distribution in fractions L5 ([2]; fraction 1 (0% MeCN)): 0.0% | % distribution in fractions Pr ([2]; fraction 1 (0% MeCN)): 87% | measured content of fraction L5 peak area (280 nm) ([2]; fraction 1 (0% MeCN)): 0 AU | measured content of fraction Pr ([2]; fraction 1 (0% MeCN)): 18.95 mM | % distribution in fractions L5 ([2]; fraction 2 (10% MeCN)): 0.1% | % distribution in fractions Pr ([2]; fraction 2 (10% MeCN)): 13% | measured content of fraction L5 peak area (280 nm) ([2]; fraction 2 (10% MeCN)): 3 AU | measured content of fraction Pr ([2]; fraction 2 (10% MeCN)): 2.82 mM | % distribution in fractions L5 ([2]; fraction 3 (10% MeCN)): 56.8% | measured content of fraction L5 peak area (280 nm) ([2]; fraction 3 (10% MeCN)): 2258 AU | % distribution in fractions L5 ([2]; fraction 4 (25% MeCN)): 34.8% | measured content of fraction L5 peak area (280 nm) ([2]; fraction 4 (25% MeCN)): 1382 AU | % distribution in fractions L5 ([2]; fraction 5 (25% MeCN)): 8.1% | measured content of fraction L5 peak area (280 nm) ([2]; fraction 5 (25% MeCN)): 324 AU | % distribution in fractions L5 ([2]; fraction 6 (50% MeCN)): 0.1% | measured content of fraction L5 peak area (280 nm) ([2]; fraction 6 (50% MeCN)): 5 AU | % distribution in fractions L5 ([2]; fraction 7 (50% MeCN)): 0.1% | measured content of fraction L5 peak area (280 nm) ([2]; fraction 7 (50% MeCN)): 3 AU | Supernatant concentration [mM] Eu [3]: 0.16 mM and 0.22 mM | Supernatant concentration [mM] Yb [3]: 3.69 mM and 3.85 mM and 3.97 mM | Precipitate concentration [mM] Eu [3]: 4.66 mM and 4.57 mM and 4.50 mM | Precipitate concentration [mM] Yb [3]: 0.63 mM and 0.62 mM and 0.58 mM | Precipitate concentration [mM] Eu ([3]; mean): 4.58 mM | Precipitate concentration [mM] Yb ([3]; mean): 0.61 mM | Supernatant concentration [mM] Eu ([3]; mean): 0.19 mM | Supernatant concentration [mM] Yb ([3]; mean): 3.84 mM

From patent US20230356105A1, “TETRAAZADODECANE BASED CHELATING AGENTS FOR SEPARATION OF RARE EARTH ELEMENTS AND METHOD THEREFOR” (Ustav Organicke Chemie a Biochemie AV CR V.V.I., priority 2020, published 2023)
